Molecular target: PIK3CG (human) (UniProt P48736)
Assay: Assessment of PIK3CG Kinase Activity

Chain of PIK3CG (human) (P48736 whole entry, looked up): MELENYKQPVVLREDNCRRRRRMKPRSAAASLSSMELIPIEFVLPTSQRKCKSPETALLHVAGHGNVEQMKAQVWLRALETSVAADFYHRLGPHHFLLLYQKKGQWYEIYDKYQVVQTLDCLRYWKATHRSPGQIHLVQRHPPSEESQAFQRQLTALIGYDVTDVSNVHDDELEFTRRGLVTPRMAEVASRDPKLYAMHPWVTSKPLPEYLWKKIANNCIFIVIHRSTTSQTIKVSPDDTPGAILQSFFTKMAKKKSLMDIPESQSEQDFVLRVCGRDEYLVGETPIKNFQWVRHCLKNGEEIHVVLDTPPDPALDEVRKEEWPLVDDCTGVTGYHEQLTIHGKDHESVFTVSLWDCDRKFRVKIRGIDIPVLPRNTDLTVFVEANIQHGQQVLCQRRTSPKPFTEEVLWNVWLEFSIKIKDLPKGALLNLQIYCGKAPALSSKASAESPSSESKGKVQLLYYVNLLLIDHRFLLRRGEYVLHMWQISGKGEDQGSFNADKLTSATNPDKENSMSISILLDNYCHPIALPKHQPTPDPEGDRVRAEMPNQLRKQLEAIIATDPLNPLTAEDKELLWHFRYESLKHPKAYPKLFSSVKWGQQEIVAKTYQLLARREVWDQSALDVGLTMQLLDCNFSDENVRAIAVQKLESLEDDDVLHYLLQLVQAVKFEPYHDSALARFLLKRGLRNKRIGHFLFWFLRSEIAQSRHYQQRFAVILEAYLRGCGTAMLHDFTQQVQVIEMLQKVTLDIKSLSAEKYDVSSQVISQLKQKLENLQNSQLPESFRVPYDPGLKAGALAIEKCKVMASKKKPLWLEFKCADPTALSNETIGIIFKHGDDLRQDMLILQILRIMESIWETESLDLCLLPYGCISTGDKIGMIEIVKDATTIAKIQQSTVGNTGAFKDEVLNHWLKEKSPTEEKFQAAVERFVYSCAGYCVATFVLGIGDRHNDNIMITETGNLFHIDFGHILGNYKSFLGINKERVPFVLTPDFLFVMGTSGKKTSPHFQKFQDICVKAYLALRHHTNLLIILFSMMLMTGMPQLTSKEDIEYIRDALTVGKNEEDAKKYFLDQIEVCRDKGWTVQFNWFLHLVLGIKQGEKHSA

IC50 [nM] | SMILES
< 600 | CC(=O)Nc1nc2c(s1)-c1nc(-c3cc(C#CCCCN4CCC(N(C)C)CC4)ccc3Cl)ncc1CC2
< 600 | CC(=O)Nc1nc2c(s1)-c1nc(-c3cc(C#CC4(N5CCCC5)CCCCC4)ccc3Cl)ncc1CC2
< 600 | CC(=O)Nc1nc2c(s1)-c1nc(-c3cc(C#CCN4CCN(C)CC4)ccc3Cl)ncc1CC2

Continued, compound first:

SMILES | IC50 [nM]
CC(=O)Nc1nc2c(s1)-c1nc(-c3cc(C#CC4CCN(CC5CCCC5)CC4)ccc3Cl)ncc1CC2 | < 600
CC(=O)Nc1nc2c(s1)-c1nc(-c3cc(C#CCNS(=O)(=O)C4CC4)ccc3Cl)ncc1CC2 | < 600
CC(=O)Nc1nc2c(s1)-c1nc(-c3cc(C#CC4CCN(C(=O)CC(C)C)CC4)ccc3Cl)ncc1CC2 | < 600
CC(=O)Nc1nc2c(s1)-c1nc(-c3cc(Cl)cc(C#CCNS(C)(=O)=O)c3)ncc1CC2 | < 600
CC(=O)Nc1nc2c(s1)-c1nc(-c3cc(C#CCCCN(C)C(C)C)ccc3Cl)ncc1CC2 | < 600

Reference: the Kinase Knowledgebase extract (Sharma et al. 2016)
